From US11339171B2, “MDM2 inhibitors” (Gan & Lee Pharmaceuticals, priority 2017, dated 2022)
Like-named read-outs stand apart in the source and are kept apart here.

Key:
[1] = target: T1, MDM2 (Homo sapiens, UniProt Q00987); test: Inhibition test of MDM2-P53 (GST-MDM2, Biotin-P53, Anti-GST-Tb, SA-XL665); type: binding; conditions: labels are Example numbers; the compounds with S-configuration are meant
T1 construct: made in house
Outline: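 Binding was measured by TR-FRET with GST-MDM2 at 4 nM final in PBS with 0.1% BSA, 5 mM DTT and 1 mM AEBSF. Compounds were tested as twelve-point 5-fold dilutions and incubated with the detection mix for 90 min at 25 °C with shaking before plate-reader reading and curve fitting.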

[2] = system: human osteosarcoma cell line SJSA-1; test: Inhibition of proliferation of human osteosarcoma cell line SJSA-1 (DAPI staining, In Cell Analyzer); conditions: for inhibitory effect on human osteosarcoma cell line SJSA-1 compared with positive control compound HDM201: labels are Example numbers, the compounds with S-configuration are meant
[3] = Homo sapiens, SJSA-1, 72 h, read-out: IC50 (nM), inhibitory activity on proliferation of human osteosarcoma cell line SJSA-1, SJSA-1, incubated 72 h

T1 sequence (Q00987 whole entry): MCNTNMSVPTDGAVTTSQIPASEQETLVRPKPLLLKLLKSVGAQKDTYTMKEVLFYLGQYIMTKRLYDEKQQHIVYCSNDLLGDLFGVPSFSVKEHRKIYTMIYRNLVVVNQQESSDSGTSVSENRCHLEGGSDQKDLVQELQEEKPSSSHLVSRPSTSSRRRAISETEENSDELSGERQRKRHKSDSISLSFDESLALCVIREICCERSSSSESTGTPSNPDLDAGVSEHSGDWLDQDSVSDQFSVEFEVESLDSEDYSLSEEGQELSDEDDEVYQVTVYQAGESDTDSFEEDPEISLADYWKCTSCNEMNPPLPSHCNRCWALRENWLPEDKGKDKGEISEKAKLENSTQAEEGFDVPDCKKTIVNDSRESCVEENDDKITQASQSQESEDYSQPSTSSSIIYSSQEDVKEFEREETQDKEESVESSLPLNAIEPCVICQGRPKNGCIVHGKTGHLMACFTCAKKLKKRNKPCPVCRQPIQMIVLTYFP

SMILES	inhibitory effect on MDM2 compared with positive control compound HDM201 [1]	inhibitory effect on human osteosarcoma cell line SJSA-1 compared with positive control compound HDM201 [2]	IC50 [2, 3] [nM]	IC50 ([2]; read-out: IC50 (nM), inhibitory activity on proliferation of human osteosarcoma cell line SJSA-1, SJSA-1, incubated 72 h) [nM]
COc1ncc(-c2nc3c(n2C(C)C)C2(C(=O)Nc4cc(Cl)ccc42)N(c2cc(Cl)ccc2C)C3=O)c(OC)n1 (stereo not shown) [Example 2, 6-chloro-5′-(5-chloro-2-methylphenyl)-2′-(2,4-dimethoxypyrimidin-5-yl)-3′-isopropyl-3′H-spiro[dihydroindole-3,4′-pyrrolo[3,4-d]imidazole]-2,6′(5′H)-dione]	better	better		
COc1cc(OC)c(-c2nc3c(n2C(C)C)C2(C(=O)Nc4cc(Cl)ccc42)N(c2cc(Cl)ccc2C)C3=O)cn1 (stereo not shown) [Example 11, 6-chloro-5′-(5-chloro-2-methylphenyl)-2′-(4,6-dimethoxypyridin-3-yl)-3′-isopropyl-3′H-spiro[dihydroindole-3,4′-pyrrolo[3,4-d]imidazole]-2,6′(5′H)-dione]	better	better		
CCc1ccc(Cl)cc1N1C(=O)c2nc(-c3cnc(OC)nc3OC)n(C(C)C)c2C12C(=O)Nc1cc(Cl)ccc12 (stereo not shown) [Example 15, 6-chloro-5′-(5-chloro-2-ethylphenyl)-2′-(2,4-dimethoxypyrimidin-5-yl)-3′-isopropyl-3′H-spiro[dihydroindole-3,4′-pyrrolo[3,4-d]imidazole]-2,6′(5′H)-dione]	better	better		
COc1ccc(C(=O)N(C)C)cc1-c1nc2c(n1C(C)C)C1(C(=O)Nc3cc(Cl)ccc31)N(c1cc(Cl)ccc1C)C2=O (stereo not shown) [Example 22, 3-(6-chloro-5′-(5-chloro-2-methylphenyl)-3′-isopropyl-2,6′-dioxo-5′,6′-dihydro-3′H-spiro[dihydroindole-3,4′-pyrrolo[3,4-d]imidazole]-2′-yl)-4-methoxy-N,N-dimethylbenzamide]	better	better		
COc1ncc(-c2nc3c(n2C(C)C)C2(C(=O)Nc4cc(Cl)ccc42)N(c2cc(Cl)cnc2C)C3=O)c(OC)n1 (stereo not shown) [Example 42, 6-chloro-5′-(5-chloro-2-methylpyridin-3-yl)-2′-(2,4-dimethoxypyrimidin-5-yl)-3′-isopropyl-3′H-spiro[dihydroindole-3,4′-pyrrolo[3,4-d]imidazole]-2,6′(5′H)-dione]	better	better		
COc1ncc(-c2nc3c(n2C(C)C)C2(C(=O)Nc4cc(Cl)ccc42)N(c2cc(F)cc(Cl)c2)C3=O)c(OC)n1 (stereo not shown) [Example 45, 6-chloro-5′-(3-chloro-5-fluorophenyl)-2′-(2,4-dimethoxypyrimidin-5-yl)-3′-isopropyl-3′H-spiro[dihydroindole-3,4′-pyrrolo[3,4-d]imidazole]-2,6′(5′H)-dione]	better	better		
COc1cc(N)ccc1-c1nc2c(n1C(C)C)C1(C(=O)Nc3cc(Cl)ccc31)N(c1cc(Cl)ccc1C)C2=O (stereo not shown) [Example 49, 2′-(4-amino-2-methoxyphenyl)-6-chloro-5′-(5-chloro-2-methylphenyl)-3′-isopropyl-3′H-spiro[dihydroindole-3,4′-pyrrolo[3,4-d]imidazole]-2,6′(5′H)-dione]	better	better		
COc1ccc(-c2nc3c(n2C(C)C)C2(C(=O)Nc4cc(Cl)ccc42)N(c2cc(Cl)cnc2C)C3=O)c(OC)c1 (stereo not shown) [Example 61, 6-chloro-5′-(5-chloro-2-methylpyridin-3-yl)-2′-(2,4-dimethoxyphenyl)-3′-isopropyl-3′H-spiro[dihydroindole-3,4′-pyrrolo[3,4-d]imidazole]-2,6′(5′H)-dione]	better	better		
COc1cc(OC(C)C)ncc1-c1nc2c(n1C(C)C)C1(C(=O)Nc3cc(Cl)ccc31)N(c1cc(Cl)ccc1C)C2=O (stereo not shown) [Example 69, 6-chloro-5′-(5-chloro-2-methylphenyl)-2′-(6-isopropoxy-4-methoxypyridin-3-yl)-3′-isopropyl-3′H-spiro[dihydroindole-3,4′-pyrrolo[3,4-d]imidazole]-2,6′(5′H)-dione]	better	better		
CCOc1cc(OC)c(-c2nc3c(n2C(C)C)C2(C(=O)Nc4cc(Cl)ccc42)N(c2cc(Cl)ccc2C)C3=O)cn1 (stereo not shown) [Example 72, 6-chloro-5′-(5-chloro-2-methylphenyl)-2′-(6-ethoxy-4-methoxypyridin-3-yl)-3′-isopropyl-3′H-spiro[dihydroindole-3,4′-pyrrolo[3,4-d]imidazole]-2,6′(5′H)-dione]	better	better		
COc1nc(OCC(F)(F)F)ncc1-c1nc2c(n1C(C)C)C1(C(=O)Nc3cc(Cl)ccc31)N(c1cc(Cl)ccc1C)C2=O (stereo not shown) [Example 141, 6-chloro-5′-(5-chloro-2-methylphenyl)-3′-isopropyl-2′-(4-methoxy-2-(2,2,2-trifluoroethoxy)pyrimidin-5-yl)-3′H-spiro[dihydroindole-3,4′-pyrrolo[3,4-d]imidazole]-2,6′(5′H)-dione]		better		
COc1cc(C2CC2)ccc1-c1nc2c(n1C(C)C)C1(C(=O)Nc3cc(Cl)ccc31)N(c1cc(Cl)cnc1C)C2=O (stereo not shown) [Example 145, 6-chloro-5′-(5-chloro-2-methylpyridin-3-yl)-2′-(4-cyclopropyl-2-methoxyphenyl)-3′-isopropyl-3′H-spiro[dihydroindole-3,4′-pyrrolo[3,4-d]imidazole]-2,6′(5′H)-dione]		better		
CCOc1ccc(-c2nc3c(n2C(C)C)C2(C(=O)Nc4cc(Cl)ccc42)N(c2cc(Cl)ccc2C)C3=O)c(OC)n1 (stereo not shown) [Example 146, 6-chloro-5′-(5-chloro-2-methylphenyl)-2′-(6-ethoxy-2-methoxypyridin-3-yl)-3′-isopropyl-3′H-spiro[dihydroindole-3,4′-pyrrolo[3,4-d]imidazole]-2,6′(5′H)-dione]		better		
COc1nc(N(C)C)ccc1-c1nc2c(n1C(C)C)C1(C(=O)Nc3cc(Cl)ccc31)N(c1cc(Cl)ccc1C)C2=O (stereo not shown) [Example 157, 6-chloro-5′-(5-chloro-2-methylphenyl)-2′-(6-(dimethylamino)-2-methoxypyridin-3-yl)-3′-isopropyl-3′H-spiro[dihydroindole-3,4′-pyrrolo[3,4-d]imidazole]-2,6′(5′H)-dione]		better		
COc1nc(C2CC2)ncc1-c1nc2c(n1C(C)C)C1(C(=O)Nc3cc(Cl)ccc31)N(c1cc(Cl)cnc1C)C2=O (stereo not shown) [Example 159, 6-chloro-5′-(5-chloro-2-methylpyridin-3-yl)-2′-(2-cyclopropyl-4-methoxypyrimidin-5-yl)-3′-isopropyl-3′H-spiro[dihydroindole-3,4′-pyrrolo[3,4-d]imidazole]-2,6′(5′H)-dione]		better		
COc1cc(N(C)CCO)ccc1-c1nc2c(n1C(C)C)C1(C(=O)Nc3cc(Cl)ccc31)N(c1cc(Cl)ccc1C)C2=O (stereo not shown) [Example 162, 6-chloro-5′-(5-chloro-2-methylphenyl)-2′-(4-((2-hydroxyethyl)(methyl)amino)-2-methoxyphenyl)-3′-isopropyl-3′H-spiro[dihydroindole-3,4′-pyrrolo[3,4-d]imidazole]-2,6′(5′H)-dione]		better		
COc1nc(C(C)C)ncc1-c1nc2c(n1C(C)C)C1(C(=O)Nc3cc(Cl)ccc31)N(c1cc(Cl)ccc1C)C2=O (stereo not shown) [Example 172, 6-chloro-5′-(5-chloro-2-methylphenyl)-3′-isopropyl-2′-(2-isopropyl-4-methoxypyrimidin-5-yl)-3′H-spiro[dihydroindole-3,4′-pyrrolo[3,4-d]imidazole]-2,6′(5′H)-dione]		better		
COc1ccc(-c2nc3c(n2C(C)C)[C@]2(C(=O)Nc4cc(Cl)ccc42)N(c2cccc(Cl)c2)C3=O)c(OC)c1 [Example R-36, (R)-6-chloro-5′-(3-chlorophenyl)-2′-(2,4-dimethoxyphenyl)-3′-isopropyl-3′H-spiro[dihydroindole-3,4′-pyrrolo[3,4-d]imidazole]-2,6′(5′H)-dione]			3180	
COc1ccc(-c2nc3c(n2C(C)C)[C@@]2(C(=O)Nc4cc(Cl)ccc42)N(c2cccc(Cl)c2)C3=O)c(OC)c1 [Example S-36, (S)-6-chloro-5′-(3-chlorophenyl)-2′-(2,4-dimethoxyphenyl)-3′-isopropyl-3′H-spiro[dihydroindole-3,4′-pyrrolo[3,4-d]imidazole]-2,6′(5′H)-dione]			83.8	72.3
COc1ccncc1-c1nc2c(n1C(C)C)[C@@]1(C(=O)Nc3cc(Cl)ccc31)N(c1ccc(F)c(Cl)c1)C2=O [Example S-59, (S)-6-chloro-5′-(3-chloro-4-fluorophenyl)-3′-isopropyl-2′-(4-methoxypyridin-3-yl)-3′H-spiro[dihydroindole-3,4′-pyrrolo[3,4-d]imidazole]-2,6′(5′H)-dione]			263	
